According to US10428087B2, “Pyrimidinones as PI3K inhibitors” (Incyte Corporation, priority 2009, dated 2019):
Counter-ions that a name gives are not always drawn.

What was measured:
[1] = tested on: B cells; experiment: B cell proliferation assay (Example B1); format: cell-based; conditions: purified human B cells, anti-human IgM, [3H]-thymidine
Experimental: To acquire B cells, human PBMC were isolated from the peripheral blood of normal, drug free donors by standard density gradient centrifugation on Ficoll-Hypague (GE Healthcare, Piscataway, N.J.) and incubated with anti-CD19 microbeads (Miltenyi Biotech, Auburn, Calif.). The B cells were then purified by positive immunosorting using an autoMacs (Miltenyi Biotech) according to the manufacturer's instruction.
The purified B cells (2×10^5/well/200 μL) were cultured in 96-well ultra-low binding plates (Corning, Corning, N.Y.) in RPMI1640, 10% FBS and goat F(ab′)2 anti-human IgM ([…]) (Invitrogen, Carlsbad, Calif.), in the presence of different amount of test compounds, […] [^3H]-thymidine (1 μCi/well) (PerkinElmer, Boston, Mass.) in PBS was then added to the B cell cultures for an additional 12 hrs before the incorporated radioactivity was separated by filtration with water through GF/B filters (Packard Bioscience, Meriden, Conn.) and measured by liquid scintillation counting with a TopCount (Packard Bioscience). […] See Table 2 for data related to compounds of the invention.

[2] = tested on: Pfeiffer cell line (diffuse large B cell lymphoma); experiment: Pfeiffer cell proliferation assay (Example B2); format: cell-based; conditions: Pfeiffer cells, [3H]-thymidine
Experimental: Pfeiffer cell line (diffuse large B cell lymphoma) was purchased from ATCC (Manassas, Va.) and maintained in the culture medium recommended (RPMI and 10% FBS). To measure the anti-proliferation activity of the PI3Kδ submittals, the Pfeiffer cells were plated with the culture medium (2×10^3 cells/well/per 200 μl) into 96-well ultra-low binding plates (Corning, Corning, N.Y.), in the presence or absence of a concentration range of test compounds. After 3-4 days, [^3H]-thymidine (1 μCi/well) (PerkinElmer, Boston, Mass.) in PBS was then added to the cell culture for an additional 12 hrs before the incorporated radioactivity was separated by filtration with water through GF/B filters (Packard Bioscience, Meridenj, Conn.) and measured by liquid scintillation counting with a TopCount (Packard Bioscience). See Table 3 for data related to compounds of the invention.

Row | IC50 ([2]; Homo sapiens, Pfeiffer) [nM] | Compound | IC50 ([1]; B-cell) [nM] | other results
1 |  | Cc1cccc2nc(C(C)Nc3ncnc4[nH]cnc34)c(-c3cccc(F)c3)c(=O)n12 (single isomer, unassigned) [Example 71, 3-(3-Fluorophenyl)-6-methyl-2-[1-(9H-purin-6-ylamino)ethyl]-4H-pyrido[1,2-a]pyrimidin-4-one trifluoroacetic acid salt] | < 50 | 
2 | 100 to 500 | Cc1cccc2nc(C(C)n3cnc4c(N)ncnc43)c(-c3ccccc3)c(=O)n12 (centres unmarked) [Example 1, 2-[1-(6-amino-9H-purin-9-yl)ethyl]-6-methyl-3-phenyl-4H-pyrido[1,2-a]pyrimidin-4-one] | < 50 | 
3 |  | Cc1csc2nc(C(C)Nc3ncnc4[nH]cnc34)c(-c3cccc(F)c3)c(=O)n12 (centres unmarked) [Example 30, 6-(3-fluorophenyl)-3-methyl-7-[1-(9H-purin-6-ylamino)ethyl]-5H-[1,3]thiazolo[3,2-a]pyrimidin-5-one] |  | IC50 [1]: < 50 nM; IC50 [2]: < 50 nM
4 | 100 to 500 | CCC(Nc1ncnc2[nH]cnc12)c1nc2cccc(C)n2c(=O)c1-c1cccc(F)c1 (centres unmarked) [Example 4, 3-(3-fluorophenyl)-6-methyl-2-[1-(9H-purin-6-ylamino)propyl]-4H-pyrido[1,2-a]pyrimidin-4-one] | < 50 | 
5 |  | Cc1csc2nc([C@H](C)Nc3ncnc4[nH]cnc34)c(-c3cccc(F)c3)c(=O)n12 [Example 15, (S)-7-(1-(9H-purin-6-ylamino)ethyl)-6-(3-fluorophenyl)-3-methyl-5H-thiazolo[3,2-a]pyrimidin-5-one] | < 50 | 
6 | < 50 | Cc1csc2nc(C(C)Nc3nc(N)nc4[nH]cnc34)c(-c3ccccc3)c(=O)n12 (centres unmarked) [Example 9, 7-{1-[(2-amino-9H-purin-6-yl)amino]ethyl}-3-methyl-6-phenyl-5H-[1,3]thiazolo[3,2-a]pyrimidin-5-one] | < 50 | 
7 | 100 to 500 | CCC(Nc1ncnc2[nH]cnc12)c1nc2cccc(C)n2c(=O)c1-c1cccnc1F (centres unmarked) [Example 6, 3-(2-fluoropyridin-3-yl)-6-methyl-2-[1-(9H-purin-6-ylamino)propyl]-4H-pyrido[1,2-a]pyrimidin-4-one] | 50 to 100 | 
8 | 100 to 500 | CC(Nc1nc(N)nc2[nH]cnc12)c1nc2sccn2c(=O)c1-c1cc(F)cc(F)c1 (centres unmarked) [Example 24, 7-{1-[(2-amino-9H-purin-6-yl)amino]ethyl}-6-(3,5-difluorophenyl)-5H-[1,3]thiazolo[3,2-a]pyrimidin-5-one] |  | 
9 | < 50 | Cc1csc2nc(C(C)Nc3ncnc4[nH]cnc34)c(-c3ccccc3)c(=O)n12 (centres unmarked) [Example 8, 3-methyl-6-phenyl-7-[1-(9H-purin-6-ylamino)ethyl]-5H-[1,3]thiazolo[3,2-a]pyrimidin-5-one] | < 50 | 
10 | 50 to 100 | Cc1ccc(-c2c(C(C)Nc3ncnc4[nH]cnc34)nc3cccc(C)n3c2=O)cc1 (centres unmarked) [Example 64, 6-Methyl-3-(4-methylphenyl)-2-[1-(9H-purin-6-ylamino)ethyl]-4H-pyrido[1,2-a]pyrimidin-4-one trifluoroacetic acid salt] |  | 
11 | < 50 | Cc1csc2nc(C(C)Nc3nc(N)nc4[nH]cnc34)c(-c3cccc(F)c3F)c(=O)n12 (centres unmarked) [Example 34, 7-{1-[(2-amino-9H-purin-6-yl)amino]ethyl}-6-(2,3-difluorophenyl)-3-methyl-5H-[1,3]thiazolo[3,2-a]pyrimidin-5-one trifluoroacetic acid salt] |  | 
12 | 100 to 500 | Cc1ccc(-c2c(C(C)Nc3ncnc4[nH]cnc34)nc3scc(C)n3c2=O)cc1 (centres unmarked) [Example 31, 3-methyl-6-(4-methylphenyl)-7-[1-(9H-purin-6-ylamino)ethyl]-5H-[1,3]thiazolo[3,2-a]pyrimidin-5-one trifluoroacetic acid salt] |  | 
13 | 100 to 500 | Cc1ccccc1-c1c(C(C)Nc2ncnc3[nH]cnc23)nc2cccc(C)n2c1=O (centres unmarked) [Example 63, 6-Methyl-3-(2-methylphenyl)-2-[1-(9H-purin-6-ylamino)ethyl]-4H-pyrido[1,2-a]pyrimidin-4-one trifluoroacetic acid salt] |  | 
14 | 50 to 100 | Cc1cccc2nc(C(C)Nc3ncnc4[nH]cnc34)c(-c3cc(F)ccc3F)c(=O)n12 (centres unmarked) [Example 67, 3-(2,5-Difluorophenyl)-6-methyl-2-[1-(9H-purin-6-ylamino)ethyl]-4H-pyrido[1,2-a]pyrimidin-4-one trifluoroacetic acid salt] |  | 
15 | 50 to 100 | Cc1cccc2nc(C(C)Nc3ncnc4[nH]cnc34)c(-c3cc(F)cc(F)c3)c(=O)n12 (centres unmarked) [Example 69, 3-(3,5-Difluorophenyl)-6-methyl-2-[1-(9H-purin-6-ylamino)ethyl]-4H-pyrido[1,2-a]pyrimidin-4-one trifluoroacetic acid salt] |  | 
16 | 50 to 100 | Cc1csc2nc(C(C)Nc3ncnc4[nH]cnc34)c(-c3cc(F)ccc3F)c(=O)n12 (centres unmarked) [Example 45, 6-(2,5-difluorophenyl)-3-methyl-7-[1-(9H-purin-6-ylamino)ethyl]-5H-[1,3]thiazolo[3,2-a]pyrimidin-5-one trifluoroacetic acid salt] |  | 
17 | < 50 | Cc1cccc2nc(C(C)Nc3nc(N)nc4[nH]cnc34)c(-c3ccccc3)c(=O)n12 (centres unmarked) [Example 50, 2-{1-[(2-Amino-9H-purin-6-yl)amino]ethyl}-6-methyl-3-phenyl-4H-pyrido[1,2-a]pyrimidin-4-one trifluoroacetic acid salt] |  | 
18 | 50 to 100 | Cc1csc2nc(C(C)Nc3ncnc4[nH]cnc34)c(-c3nccs3)c(=O)n12 (centres unmarked) [Example 20, 3-methyl-7-[1-(9H-purin-6-ylamino)ethyl]-6-(1,3-thiazol-2-yl)-5H-[1,3]thiazolo[3,2-a]pyrimidin-5-one trifluoroacetic acid salt] |  | 
19 | < 50 | Cc1csc2nc(C(C)Nc3nc(N)nc4[nH]cnc34)c(-c3ccccc3F)c(=O)n12 (centres unmarked) [Example 33, 7-{1-[(2-amino-9H-purin-6-yl)amino]ethyl}-6-(2-fluorophenyl)-3-methyl-5H-[1,3]thiazolo[3,2-a]pyrimidin-5-one trifluoroacetic acid salt] |  | 
20 | 50 to 100 | Cc1cccc2nc(C(C)Nc3nc(N)nc4[nH]cnc34)c(-c3cccc(Cl)c3)c(=O)n12 (centres unmarked) [Example 54, 2-{1-[(2-Amino-9H-purin-6-yl)amino]ethyl}-3-(3-chlorophenyl)-6-methyl-4H-pyrido[1,2-a]pyrimidin-4-one trifluoroacetic acid salt] |  | 
21 |  | Cc1csc2nc(C(C)Nc3nc(N)nc4[nH]cnc34)c(-c3cc(F)cc(F)c3)c(=O)n12 (centres unmarked) [Example 13, 7-{1-[(2-amino-9H-purin-6-yl)amino]ethyl}-6-(3,5-difluorophenyl)-3-methyl-5H-[1,3]thiazolo[3,2-a]pyrimidin-5-one] | < 50 | 
22 | 100 to 500 | Cc1csc2nc(C(C)Nc3ncnc4[nH]cnc34)c(-c3ccc(F)cc3)c(=O)n12 (centres unmarked) [Example 22, 6-(4-fluorophenyl)-3-methyl-7-[1-(9H-purin-6-ylamino)ethyl]-5H-[1,3]thiazolo[3,2-a]pyrimidin-5-one trifluoroacetic acid salt] |  | 
23 | < 50 | CCc1cccc2nc(C(C)Nc3nc(N)nc4[nH]cnc34)c(-c3cc(F)cc(F)c3)c(=O)n12 (centres unmarked) [Example 77, 2-{1-[(2-Amino-9H-purin-6-yl)amino]ethyl}-3-(3,5-difluorophenyl)-6-ethyl-4H-pyrido[1,2-a]pyrimidin-4-one trifluoroacetic acid salt] |  | 
24 | 500 to 1000 | Cc1cccc2nc(C(C)Nc3nc(N)nc4[nH]cnc34)c(-c3ccc(C#N)cc3)c(=O)n12 (centres unmarked) [Example 62, 4-(2-{1-[(2-Amino-9H-purin-6-yl)amino]ethyl}-6-methyl-4-oxo-4H-pyrido[1,2-a]pyrimidin-3-yl)benzonitrile trifluoroacetic acid salt] |  | 
25 | 100 to 500 | CCc1cccc2nc(C(C)Nc3ncnc4[nH]cnc34)c(-c3ccc(F)cc3)c(=O)n12 (centres unmarked) [Example 78, 6-Ethyl-3-(4-fluorophenyl)-2-[1-(9H-purin-6-ylamino)ethyl]-4H-pyrido[1,2-a]pyrimidin-4-one trifluoroacetic acid salt] |  | 
26 | > 1000 | Cc1csc2nc(C(C)Nc3ncnc4[nH]cnc34)c(-c3ccccn3)c(=O)n12 (centres unmarked) [Example 14, 3-methyl-7-[1-(9H-purin-6-ylamino)ethyl]-6-pyridin-2-yl-5H-[1,3]thiazolo[3,2-a]pyrimidin-5-one] |  | 
27 | < 50 | Cc1cccc2nc(C(C)Nc3nc(N)nc4[nH]cnc34)c(-c3ccccc3Cl)c(=O)n12 (centres unmarked) [Example 58, 2-{1-[(2-Amino-9H-purin-6-yl)amino]ethyl}-3-(2-chlorophenyl)-6-methyl-4H-pyrido[1,2-a]pyrimidin-4-one trifluoroacetic acid salt] |  | 

Row | Compound | IC50 ([2]; Homo sapiens, Pfeiffer) [nM] | IC50 ([1]; B-cell) [nM] | other results
28 | Cc1csc2nc(C(C)Nc3ncnc4[nH]cnc34)c(-c3cccc(F)c3)c(=O)n12 (centres unmarked) [Example 10, 6-(3-fluorophenyl)-3-methyl-7-[1-(9H-purin-6-ylamino)ethyl]-5H-[1,3]thiazolo[3,2-a]pyrimidin-5-one] | < 50 | < 50 | 
